Patent US20120101134A1, “5-MEMBERED HETEROARYL DERIVATIVES USED AS SPHINGOSINE 1-PHOSPHATE RECEPTOR AGONISTS” (GLAXO GROUP LIMITED, priority 2009, published 2012)

molecular target: T1, human Endothelial Differentiation Gene 1 (EDG1) (Homo sapiens, UniProt P21453); test: S1P1 Tango assay - 96 well format; type: cell-based; conditions: EDG1-bla/U2OS cells, agonist
T1 construct: TEV protease site; Gal4-VP16 transcription factor; expressed in transfected cells; host or cells: EDG1-bla/U2OS (Tango GPCR-bla U2OS parental cell line)
Procedure: S1P1 Tango assay—96 Well Format
Recombinant EDG1-bla/U2OS cells (contain the human Endothelial Differentiation Gene 1 (EDG1) linked to a TEV protease site and a Gal4-VP16 transcription factor stably integrated into the Tango GPCR-bla U2OS parental cell line) were suspended in assay medium (Invitrogen Freestyle Expression Medium) at a density of 312, 500 cells/ml. Add 100 μl/well of the assay medium to the cell-free control wells (column 12) and 100 μl/well of the cell suspension to the test compound wells (row 2-8, column 1-10), the unstimulated control wells (DMSO) (column 11), and stimulated control wells (SIP) (row 1, column 1-10) in a Corning black-well, clear bottom 96-well plate. Cells were incubated at 37° C., 5% CO2 for 44-48 h.
Add 25 μl of 5× stock solution of test compounds in assay medium with 0.5% DMSO to the test compound wells, 25 μl of 5× stock solution of agonist (S1P) in assay medium with 0.5% DMSO to the stimulated compound wells, and 25 μl of 5× stock solution of 0.5% DMSO in assay medium to the unstimulated control and cell-free control wells.
After incubation at 37° C., 5% CO2 for 5 h, 25 μl of 6× substrate mixture (6 μl Solution A (1 mg LiveBLAzer™-FRET B/G substrate (CCF4-AM) in 912 μl DMSO) plus 60 μl Solution B plus 934 μl Solution C) was added to each well and incubate at room temperature for 2 h in dark. The plate was finally read on EnVision for two emission channels (460 nm and 530 nm).
All test compounds were dissolved in DMSO at a concentration of 10 mM and were prepared in 100% DMSO using a 1 in 5 dilution step to provide 10 point dose response curves. The dilutions were transferred to the assay plates ensuring that the DMSO concentration was constant across the plate for all assays.
Calculate the blue/green emission ratio (460 nm/530 nm) for each well, by dividing the background-subtracted Blue emission values by the background-subtracted Green emission values. The dose response curve is based on sigmoidal dose-response model. […]

T1 sequence (P21453 whole entry, the tested form may be a part): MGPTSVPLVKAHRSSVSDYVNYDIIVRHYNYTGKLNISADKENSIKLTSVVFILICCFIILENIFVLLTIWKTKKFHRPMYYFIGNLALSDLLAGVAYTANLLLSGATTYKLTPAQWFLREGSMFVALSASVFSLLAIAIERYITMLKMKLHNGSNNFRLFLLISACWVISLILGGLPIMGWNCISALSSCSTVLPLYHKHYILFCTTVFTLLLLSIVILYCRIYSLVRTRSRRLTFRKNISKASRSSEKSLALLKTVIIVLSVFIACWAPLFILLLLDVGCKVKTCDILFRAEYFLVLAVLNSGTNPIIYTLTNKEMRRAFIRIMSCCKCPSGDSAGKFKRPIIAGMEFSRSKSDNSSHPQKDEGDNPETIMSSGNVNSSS

EC50, > 1000 nM:
Cc1c(C[C@@H](C)C(=O)O)cccc1-c1noc(-c2cnc(OC(C)C)c(Cl)c2)n1 [Example 3, (2R)-3-[3-(5-{5-chloro-6-[(1-methylethyl)oxy]-3-pyridinyl}-1,2,4-oxadiazol-3-yl)-2-methylphenyl]-2-methylpropanoic acid]
Cc1c(CCCC(=O)O)cccc1-c1noc(-c2cnc(OC(C)C)c(Cl)c2)n1 [Example 4, 4-[3-(5-{5-chloro-6-[(1-methylethyl)oxy]-3-pyridinyl}-1,2,4-oxadiazol-3-yl)-2-methylphenyl]butanoic acid]
CC(C)Oc1ccc(-c2nc(-c3ccnc(CCCC(=O)O)c3)no2)cc1C#N [Example 21, 4-[4-(5-{3-cyano-4-[(1-methylethyl)oxy]phenyl}-1,2,4-oxadiazol-3-yl)-2-pyridinyl]butanoic acid]
